Key:
Format in all cases: physicochemical
[1] = system: Avastin® (bevacizumab); experiment: Effect of AMP on the unmodified commercial bevacizumab formulation (Avastin®): monomers by AFFF-MALS; settings: 40° C.; for stabilization of the antibody (increase in the amount of monomers) versus Avastin® alone: p<0.05
Method: (§1) All samples were stored at a temperature of 40° C. during 28 days. Samples were analyzed directly after preparation (t0) and after 7, 14 and 28 days. The aggregation state of the antibodies was measured by multi-angle light scattering (MALS) after separation by asymmetrical flow field-flow fractionation (AFFF). […] Data were collected and analyzed with Astra software (Wyatt Technology Europe GmbH, Dernbach, Germany). The aggregation state was expressed as the percentage of monomers versus time.
All samples are stored at a temperature of 40° C. for 28 days and stability is measured as described in Example 1 and compared to a sample of Avastin® alone stored under the same conditions.

[2] = system: bevacizumab; experiment: Stability of dialysed, pre-stressed bevacizumab alone and with AMP: percentage of monomers by AFFF-MALS; settings: for percentage of monomers: pH 7.0
Method: as §1, with “A 50 mM phosphate buffer pH 7.0 was used. The buffer choice was based on” for “All samples were stored at”, “pH range and buffer capacity that is tolerated physiologically and that is acceptable for the stability” for “temperature”, “antibodies. […]” for “40° C. during 28 days.”

[3] = system: Avastin® (bevacizumab); experiment: Stability of pre-stressed Avastin® dialysed into PBS pH 7.0, with ATP or GMP: monomers by AFFF-MALS; settings: for stabilization of Avastin® across molar ratios: ratios 1:1, 1:10, 1:100, 40° C.
Method: as §1, with “Samples were analyzed directly after preparation (t0) and after 7, 14 and 28 days.” left out
After pre-stressing, Avastin® samples are combined with either ATP or GMP at three Avastin®: compound of formula (I) molar ratios (1:1, 1:10 and 1:100). All samples are stored at a temperature of 40° C. for 28 days and stability is measured as described in Example 1 and compared to a sample of Avastin® alone stored under the same conditions. For GMP, a dilution of GMP was made in PBS pH 7.0 and pH was re-adjusted to pH 7.0 before the combination with Avastin® to prevent the risk of higher order aggregates caused by the addition of NaOH directly to the antibody formulation.

[4] = molar ratio 1:1, 1 day at 40° C. (t1)
[5] = molar ratio 1:10, 1 day at 40° C. (t1)
[6] = molar ratio 1:100, 1 day at 40° C. (t1)

stabilization compared to the other molar ratios ([1]; Avastin®:AMP 1:10 versus 1:1 and 1:100) | stabilization of the antibody (increase in the amount of monomers) versus Avastin® alone ([1]; Avastin®:AMP molar ratio 1:10, t1, t14 and t28) | stabilization of the antibody (increase in the amount of monomers) versus Avastin® alone ([1]; Avastin®:AMP molar ratio 1:100, only t14 and t28) | increase in the proportion of the antibody present in the monomer form ([2]; AMP added to a liquid formulation containing already formed antibody aggregates, general statement) | percentage of monomers ([2]; bevacizumab 25 mg/ml with AMP (read as molar ratio 1:153), 14 days at 40° C., n=3) | percentage of monomers ([2]; bevacizumab:AMP molar ratio 1:1.53, 14 days at 40° C.) | percentage of monomers ([2]; bevacizumab:AMP molar ratio 1:1.53, 28 days at 40° C., n=3) | percentage of monomers ([2]; bevacizumab:AMP molar ratio 1:15.3, 14 days at 40° C.) | percentage of monomers ([2]; bevacizumab:AMP molar ratio 1:15.3, 28 days at 40° C., n=3) | percentage of monomers ([2]; bevacizumab:AMP molar ratio 1:153, 28 days at 40° C., n=3) | stabilizing properties in comparison of excipients ([3]; after 28 days of storage at 40° C., ratio not specified) | stabilization of Avastin® across molar ratios ([3]; all timepoints (1:100 most effective, then 1:10, then 1:1)) | Compound | effect on antibody stability versus Avastin® alone [3, 4] | effect on antibody stability versus Avastin® alone ([3]; molar ratio 1:1, 28 days at 40° C. (t28)) | effect on antibody stability versus Avastin® alone [3, 5] | effect on antibody stability versus Avastin® alone ([3]; molar ratio 1:10, 28 days at 40° C. (t28)) | effect on antibody stability versus Avastin® alone [3, 6] | effect on antibody stability versus Avastin® alone ([3]; molar ratio 1:100, 28 days at 40° C. (t28)) | higher order aggregates ([3]; molar ratio 1:100, 28 days at 40° C., probably due to pH adjustment) | stabilization of Avastin® across molar ratios ([3]; up to 14 days)
better stabilization | significant stabilization | significant stabilization | 10% to 30 | higher than 94% | higher than 80% | higher than 76% | higher than 80% | higher than 76% | around 90% |  |  | Nc1ncnc2c1ncn2[C@@H]1O[C@H](COP(=O)(O)O)[C@@H](O)[C@H]1O [AMP, adenosine 5′-monophosphate] |  |  |  |  |  |  |  | 
 |  |  |  |  |  |  |  |  |  |  |  | Nc1ncnc2c1ncn2[C@@H]1O[C@H](COP(=O)(O)OP(=O)(O)OP(=O)(O)O)[C@@H](O)[C@H]1O [ATP, adenosine 5′-triphosphate] | stabilizing effect | no significant difference | stabilizing effect | no significant difference | stabilizing effect | significant stabilization | small percentage of higher order aggregates | concentration dependent stabilization
 |  |  |  |  |  |  |  |  |  | most distinct stabilizing properties | concentration dependent stabilization | Nc1nc2c(ncn2[C@@H]2O[C@H](COP(=O)(O)O)[C@@H](O)[C@H]2O)c(=O)[nH]1 [GMP, guanosine 5′-monophosphate] | destabilizing |  | destabilizing |  | ability to stabilize the antibody |  |  | 

— US20130017197A1, “STABILIZED ANTIBODY PREPARATIONS AND USES THEREOF” (UNIVERSITE DE GENEVE, priority 2010, published 2013)
